Assay results reported in paper PMC11513920, “Building Metabolically Stable and Potent Anti-HIV Thioether-Lipid Analogues of Tenofovir Exalidex: A thorough Pharmacological Analysis” (Journal of Medicinal Chemistry, 2024).
Where two headings read alike, the source gives them in different places.

What was measured:
Human plasma stability = assay type: in vitro ADME; details: for remaining at 4 h, 3 μM / half-life at 3 μM: both sexes, human, plasma; for half-life at 3 μM: 37 °C, 240 min course, read-out: human plasma t1/2
Method: (§1) Human plasma (lithium heparin (LiHep) mixed, gender pooled, 0.2 μm filtered) and mouse plasma (BALB/C, LiHep mixed, male pooled, 0.2 μm filtered) were purchased from BioIVT. Procaine (Sigma-Aldrich) served as a positive control for both human and mouse plasma experiments. […] Next, the human or mouse plasma (994 μL) was aliquoted into 1.5 mL Eppendorf tubes with duplicates (reactions A and B) being prepared for each compound. The plasma was then incubated at 37 °C for 10 min. […] This procedure provided duplicate experiments with a final volume of 1000 μL (<0.2% organic solvent content) and a final test compound concentration of 3 μM. Aliquots (100 μL) were removed from each reaction mixture at 0, 30, 60, 120, and 240 min time intervals and quenched with 150 μL of cold ISTD solution (2 μM 7-ethoxy-d5-coumarin in MeOH). […] The positive control reaction was conducted at a final volume of 1000 μL for a single run of each time point. Finally, the negative control experiment was conducted with test compounds in Dulbecco’s phosphate buffered saline without calcium and magnesium (DPBS, Fisher Scientific, 143 μL) and analyzed at the 240 min time point.
(§2) Plasma Stability Assay Setup Example
(§3) Test Compound: 994 µL Human or Mouse Plasma + 6.0 µL TC (500 µM, Vial A).
(§4) 994 µL Human or Mouse Plasma + 6.0 µL TC (500 µM, Vial B).
(§5) Positive Control: 994 µL Human or Mouse Plasma + 6.0 µL Procaine (500 µM).
(§6) Negative Control: 142 µL DPBS (1X, pH 7.1-7.3) + 0.9 µL TC (500 µM).
(§7) Quenching Mixture: 150 µL MeOH with ISTD (2 µM d5-7-ethoxycoumarin).
(§8) Final Volume After Quenching: 250 µL (100 µL from reaction mixture and 150 µL quencher
solution; ISTD final concentration of 1.2 µM).
Human Plasma Stability of Compound 2a at 37 °C
Figure S29. In vitro human plasma stability of 2a (5 points over 240 min) with procaine serving

Mouse plasma stability = assay type: in vitro ADME; details: for mouse plasma t1/2: 3 μM, 37 °C, 240 min course; for remaining at 4 h, 3 μM / half-life at 3 μM: male, BALB/C, mouse, plasma; for half-life at 3 μM: read-out: in vitro mouse plasma stability t1/2
Method: as §1, §2, §3, §4, §5, §6, §7, §8
solution; ISTD final concentration of 1.2 µM). […]

[1] = Mouse tissue (liver, kidney, brain) pharmacokinetics after oral dose; assay type: in vivo, male C57BL/6 mice; details: for TFV in brain tissue: brain, 1, 4 and 24 h after p.o. 10 mg/kg of prodrug, LLOQ 4.84 ng/mL (9.67 for 16h); for AUC(0-t) at 24 h: read-out: AUC0–24h; for concentration at 24 h / mean prodrug concentration in brain: 24 h; for mean prodrug concentration in brain: BLQ = below limit of quantitation
Method: To compare the in vivo PK profiles to TXL and our previously reported drug lead 1 (Tables S19 and S26),[39] one group of male C57BL/6 mice were administered a single oral dose (p.o., 10 mg/kg) of 2a, 16g, or 16h (refer to Experimental Methods). Additionally, a separate group of mice were given a single intravenous dose (i.v., 3 mg/kg) of each prodrug to obtain plasma clearance (Cl), volume of distribution (Vd), and oral bioavailability data. Blood was sampled at 8 time points over 8 h (i.v.) or 24 h (p.o.) postdose, and plasma was isolated via centrifugation. Tissues (liver, kidney, and brain) were also harvested and homogenized at 3 time points over 24 h after oral dose. The concentrations of prodrug and TFV metabolite in each of these samples was then quantified using LC–MS/MS methodology.
Healthy male C57BL/6 mice (8–12 weeks old) weighing 20–30 g were procured from Global, India. Three mice were housed in each cage. Temperature and humidity were maintained at 22 ± 3 °C and 30–70%, respectively, and illumination was controlled to provide for 12 h light and 12 h dark cycles. Temperature and humidity were recorded by an autocontrolled data logger system. All animals were provided a laboratory rodent diet (Envigo Research private Ltd., Hyderabad). Reverse osmosis H2O treated with ultraviolet light was provided ad libitum.
Male mice were divided into two groups (n = 18 total, n = 9 per treatment group, n = 3 per time point, sparse sampling). One group was intravenously administered a solution of 2a, 16g, and 16h in 10% PEG-300, 10% Solutol HS-15, and 80% saline at 3 mg/kg with a dosing volume of 5 mL/kg. The second group was administered a solution of 2a, 16g, and 16h in 10% EtOH and 90% olive oil at 10 mg/kg via oral gavage with a dosing volume of 10 mL/kg.
Blood samples (approximately 60 μL) were collected from retro-orbital plexus under light isoflurane anesthesia such that the samples were obtained predose, as well as at eight time points post dose: 0.1, 0.25, 0.5, 1, 2, 4, 6, and 8 (i.v.) and 0.25, 0.5, 1, 2, 4, 8, 12, and 24 h (p.o.). Immediately after blood collection, plasma samples were harvested by centrifugation at 4000 rpm and 4 °C for 10 min and stored at −70 °C until LC–MS/MS analysis. Following blood collection from p.o. group, liver, kidney, and brain samples were collected (n = 3 per treatment group per time point) at 1, 4, and 24 h post dose. After isolation, tissue samples were rinsed three times with ice-cold saline and dried with blotting paper. Next, the tissue samples were homogenized using ice-cold PBS (pH = 7.4), and the resulting homogenates were stored below −70 °C until LC-MS/MS analysis. The total homogenate volume was 3 times the brain weight and 5 times the liver and kidney weight.
Areas under the concentration–time curves (AUC0–8h and AUC0–24h) were calculated via the linear trapezoidal rule[65] using GraphPad Prism v9. Furthermore, terminal elimination rate constants k were determined using linear regression (slope = −k) of the terminal portion of semilog-transformed concentration–time curves (Figures S44, S45, S47, S48, S50, and S51).

HepaRG cellular uptake = details: human, HepaRG Cmax, 20 μM, HSA formulation 5:1, recorded after 3 h incubation
From the text: (§9) Naturally, due the metabolic complexity of HepaRG cells, we specifically analyzed prodrug cellular uptake and stability, as represented by Cmax and intrinsic clearance (Clint,u) accordingly (Figure 7 and Table 9).
(§10) The HepaRG cell line (HPRGC10, Thermo Fisher Scientific) was used to evaluate the cellular permeability and metabolic stability for select final compounds in vitro. The cells were initially thawed with working media composed of HepaRG Thaw, Plate, & General Purpose Medium Supplement (HPRG670), Williams Medium E (100 mL), and GlutaMax (1 mL), all purchased from Thermo Fisher Scientific. […] After the thawing medium was aspirated from each well, the cells were cultured for an additional 6 days with working media consisting of HepaRG Maintenance/Metabolism Medium Supplement (HPRG720), Williams Medium E (500 mL), and GlutaMax (1 mL), all purchased from Thermo Fisher Scientific. Upon completing the 7-day culture period, HepaRG cells were plated in enough wells to allow for duplicate analysis of prodrugs in two independent cellular uptake or metabolic stability experiments. All studied compounds were formulated with human serum albumin (HSA, 5:1 compound to HSA molar ratio) and subsequently diluted to a 20 μM final concentration with assay medium composed of serum-free INVITROGRO HI Medium and TORPEDO Antibiotic Mix purchased from BioIVT. For cellular uptake determinations, the maintenance/metabolism medium was first aspirated from each well, and then the plated cells were spiked with 1.0 mL of test compound stock solution. Subsequently, the plate was incubated at 37 °C under 5% CO2 environment over the desired time course (seven data points/compound). Blank wells not treated with prodrug were included in assay runs as controls and initial time points (0 min). At each time point, the test compound solution was removed from the appropriate wells, and the plated cells were washed with 1.0 mL of DPBS twice. The HepaRG cells were then extracted with 500 μL of cold ISTD solution (1 μM 7-ethoxy-d5-coumarin in 70/30 MeOH/H2O), and the quenched aliquots were centrifuged at 15,000 g for 10 min at 4 °C. […] After obtaining prodrug Cmax and Tmax values from the cellular uptake assay, HepaRG metabolic stability was then assessed. Following the initial 7-day culture procedure, the maintenance/metabolism medium was aspirated from each well, and the plated cells were spiked with 1.0 mL of test compound stock solution. […] The test compound solution was then removed from each well and replaced with untreated dilution medium (i.e., serum-free INVITROGRO HI Medium and TORPEDO Antibiotic Mix), initializing the stability determination. The HepaRG plate was once more incubated at 37 °C under 5% CO2 atmosphere over the desired time course (nine data points/compound), and sample preparation and analysis were handled in identical fashion to cellular uptake experiments.

HepaRG cells = test: HepaRG cellular uptake; details: for mean prodrug concentration in HepaRG cells: 20 µM; for HepaRG Cmax: 20 μM, HSA formulation 5:1, recorded after 3 h incubation
From the text: as §9, §10

[2] = Cellular cytotoxicity (cell viability, CellTiter 96 or resazurin); details: human, CC50, HEK293T cells, compounds formulated with HSA (5:1)
Method: Second, HIV IC50 and cellular CC50 were determined with a pseudoviral, whole (HEK293T) cell, nonreplicative HIV assay, using the HIV-1 subtype C strain MJ4 (refer to Experimental Methods). To account for the unique amphiphilic properties of TXL and the novel HTP-based prodrugs, all compounds were formulated in a human serum albumin (HSA) solution (5:1 drug:protein).
Assessment of cytotoxicity and antiviral activity of all final compounds in vitro was conducted according to previously reported procedures.[39] In summary, human embryonic kidney (HEK293T) cells maintained in high glucose (25 mM), Dulbecco’s modified Eagle’s medium (DMEM) supplemented with fetal bovine serum (10%), sodium pyruvate (1 mM), L-glutamine (2 mM), HEPES (25 mM), and gentamicin (50 μg/mL) were used for determinations. The cells were maintained in an incubator at 37 °C under 5% CO2 in a humidified atmosphere. For both cytotoxicity and antiviral screening, all compounds were evaluated in duplicate in at least two independent experiments. All final compounds were formulated with human serum albumin (HSA, 5:1 compound to HSA molar ratio) and subsequently diluted with complete DMEM to 200 μM. Fifty microliters of test compound serial dilutions (3-fold) were prepared in 96-well culture plates, after which 50 μL of HEK293T cells (2 × 10^4 cells/well) was added. […] Cytotoxicity was then assessed by quantifying cell viability using the CellTiter 96 Aqueous One Solution Cell Proliferation Assay (Promega, Madison, WI) or resazurin sodium salt (cat# R7017, Merck, Darmstadt, Germany).[61] […] Antiviral activity was then assessed using a single-cycle, nonreplicating, envelope deleted HIV pseudoviral in vitro assay.[62],[63] The assay relies on the introduction of the firefly luciferase gene into HEK293T cells through infection with HIV-like viral particles, containing Reverse Transcriptase (RT) and Integrase (IN) from the HIV-1 subtype C strain MJ4.[64] The expression of the luciferase in the cells is directly proportional to the level of infection by the HIV-like viral particles and can be used to assess the inhibition of HIV-1 RT and IN. To evaluate anti-HIV activity, 3-fold serial dilutions of all final compounds were prepared in 50 μL over the noncytotoxic concentration range (as determined from the cytotoxicity screens described above) in 96-well culture plates. HEK293T cells (2 × 10^4 cells/well) and HIV-like viral particles, standardized to produce a luminescence signal of 1 × 10^6 relative light units (RLUs) in the growth medium only control, were combined, and 50 μL was added to the wells containing serially diluted test compounds. […] The expression of luciferase was subsequently quantified by adding 100 μL of the Bright-Glo Luciferase Assay substrate (Promega, Madison, WI) to each well of the 96-well plates. After incubation at rt for 3 min, luminescence was quantified on the GloMax Explorer Multimode Microplate Reader (Promega, Madison, WI).

[3] = relative percent remaining at 240 min
[4] = male, C57BL/6, mouse, brain, po, p.o. 10 mg/kg, read-out: mean prodrug concentration in brain
[5] = male, C57BL/6, mouse, kidney, po, p.o. 10 mg/kg, read-out: mean prodrug concentration in kidney
[6] = male, C57BL/6, mouse, liver, po, p.o. 10 mg/kg, read-out: mean prodrug concentration in liver
[7] = male, C57BL/6, mouse, po, brain, prodrug, p.o. 10 mg/kg
[8] = male, C57BL/6, mouse, po, kidney, prodrug, p.o. 10 mg/kg
[9] = male, C57BL/6, mouse, po, liver, prodrug, p.o. 10 mg/kg

Row | SMILES | remaining at 4 h, 3 μM (Human plasma stability; [3]) [%] | half-life at 3 μM (Human plasma stability) [h] | mouse plasma t1/2 (Mouse plasma stability) [h] | remaining at 4 h, 3 μM (Mouse plasma stability; [3]) [%] | half-life at 3 μM (Mouse plasma stability) [h] | TFV in brain tissue [1] | concentration at 1 h [1, 4] [ng/mL] | concentration at 4 h [1, 4] [ng/mL] | concentration at 1 h [1, 5] [ng/mL] | concentration at 4 h [1, 5] [ng/mL] | concentration at 24 h [1, 5] [ng/mL] | concentration at 1 h [1, 6] [ng/mL] | concentration at 4 h [1, 6] [ng/mL] | concentration at 24 h [1, 6] [ng/mL] | Cmax at 24 h [1, 7] [ng/mL] | AUC(0-t) at 24 h [1, 7] [ng·h/mL] | Cmax at 24 h [1, 8] [ng/mL] | AUC(0-t) at 24 h [1, 8] [ng·h/mL] | Cmax at 24 h [1, 9] [ng/mL] | AUC(0-t) at 24 h [1, 9] [ng·h/mL] | also measured
1 | CCCCCCCCCCCCCCCCSCCCOP(=O)(O)CO[C@H](C)Cn1cnc2c(N)ncnc21.N [2a] | 95 | > 4 | > 4 | 95 | > 4 | BLQ | 43.8 | 2.19 | 581 | 385 | 44.4 | 1250 | 395 | 3.95 | 43.8 | 69 | 581 | 5740 | 1250 | 6450 | human plasma % remaining (Human plasma stability; [3]): > 95%; mouse plasma % remaining (Mouse plasma stability; [3]): > 95%; Tmax [1, 7]: 1 h; Tmax [1, 8]: 1 h; Tmax [1, 9]: 1 h; mean prodrug concentration in brain ([1]; p.o. 10 mg/kg): BLQ; Cmax at 3 h, 20 μM (HepaRG cellular uptake): 828 ± 0.2 ng/mL; mean prodrug concentration in HepaRG cells (HepaRG cells; 0.5 h): 467.27 ng/mL; mean prodrug concentration in HepaRG cells (HepaRG cells; 1 h): 530.17 ng/mL; mean prodrug concentration in HepaRG cells (HepaRG cells; 2 h): 676.9 ng/mL; mean prodrug concentration in HepaRG cells (HepaRG cells; 3 h): 827.97 ng/mL; mean prodrug concentration in HepaRG cells (HepaRG cells; 5 h): 1004.64 ng/mL; mean prodrug concentration in HepaRG cells (HepaRG cells; 7 h): 994.36 ng/mL; CC50 at 48 h [2]: 50 µM
2 | C[C@H](Cn1cnc2c(N)ncnc21)OCP(=O)(O)OCCCSCCCCCCCCCCCCc1ccc(F)cc1.N [16g] | > 95 | > 4 | > 4 | > 95 | > 4 | BLQ | 3.24 | 5.74 | 310 | 602 | 25.4 | 5330 | 4810 | 24.8 | 5.74 | 13.5 | 602 | 7650 | 5330 | 63600 | Tmax [1, 9]: 1 h; mean prodrug concentration in brain ([1]; p.o. 10 mg/kg): BLQ; Cmax at 3 h, 20 μM (HepaRG cellular uptake): 210 ng/mL; mean prodrug concentration in HepaRG cells (HepaRG cells; 0.5 h): 124.04 ng/mL; mean prodrug concentration in HepaRG cells (HepaRG cells; 1 h): 162.75 ng/mL; mean prodrug concentration in HepaRG cells (HepaRG cells; 2 h): 178.18 ng/mL; mean prodrug concentration in HepaRG cells (HepaRG cells; 3 h): 209.81 ng/mL; mean prodrug concentration in HepaRG cells (HepaRG cells; 5 h): 203.98 ng/mL; mean prodrug concentration in HepaRG cells (HepaRG cells; 7 h): 229.08 ng/mL; HepaRG Cmax (HepaRG cells): 209.8 ± 0.2 ng/mL; CC50 at 48 h [2]: > 100 µM
3 | C[C@H](Cn1cnc2c(N)ncnc21)OCP(=O)(O)OCCCSCCCCCCCCCCCCC1CCCCC1.N [16h] | > 95 | > 4 | > 4 | 71 | > 4 | BLQ | 16.1 | 8.39 | 279 | 795 | 123 | 1540 | 2150 | 32.4 | 16.2 | 36.8 | 795 | 10800 | 2150 | 27300 | Tmax at 24 h [1, 7]: 1 h; mean prodrug concentration in brain ([1]; p.o. 10 mg/kg): BLQ; Cmax at 3 h, 20 μM (HepaRG cellular uptake): 1410 ng/mL; mean prodrug concentration in HepaRG cells (HepaRG cells; 0.5 h): 896.16 ng/mL; mean prodrug concentration in HepaRG cells (HepaRG cells; 1 h): 911.53 ng/mL; mean prodrug concentration in HepaRG cells (HepaRG cells; 2 h): 1178.12 ng/mL; mean prodrug concentration in HepaRG cells (HepaRG cells; 3 h): 1412.37 ng/mL; mean prodrug concentration in HepaRG cells (HepaRG cells; 5 h): 1533.37 ng/mL; mean prodrug concentration in HepaRG cells (HepaRG cells; 7 h): 1616.17 ng/mL; HepaRG Cmax (HepaRG cells): 1412.4 ± 1.5 ng/mL; CC50 at 48 h [2]: 48 µM
